Literature values in patent US20040087484A1, “Combination of organic compounds” (priority 2003, published 2004).

Tested on: male rats
Settings: used for the treatment of hypertensive disorder in male rats

## CCCCc1nc(Cl)c(CO)n1Cc1ccc(-c2ccccc2-c2nn[nH]n2)cc1 [losartan]
  preservation of sexual function: advantage in preservation of sexual function
